Values after ≈ are worked out from the molar mass of the structure shown. Values joined by “and” are separate entries in the source; they are usually repeats but may differ in a detail not shown here. Identical values can stand only once.
Key:
[1] = DNDI: Metabolism; assay type: ADME, Microsome; settings: rat, microsomes; for hepatic extraction ratio: read-out: EH
in vitro [2] = settings: human, microsomes
[3] = DNDI: Solubility in phosphate buffer at pH 6.5 determined by nephelometry
in vitro [4] = settings: human, microsomes; remark: listed apart in the source
Cytochrome P450 3A4 [5] = target: T1, Cytochrome P450 3A4 (Homo sapiens, UniProt P08684); assay: DNDI: CYP Inhibition; assay type: ADME
T1 sequence (P08684 whole entry): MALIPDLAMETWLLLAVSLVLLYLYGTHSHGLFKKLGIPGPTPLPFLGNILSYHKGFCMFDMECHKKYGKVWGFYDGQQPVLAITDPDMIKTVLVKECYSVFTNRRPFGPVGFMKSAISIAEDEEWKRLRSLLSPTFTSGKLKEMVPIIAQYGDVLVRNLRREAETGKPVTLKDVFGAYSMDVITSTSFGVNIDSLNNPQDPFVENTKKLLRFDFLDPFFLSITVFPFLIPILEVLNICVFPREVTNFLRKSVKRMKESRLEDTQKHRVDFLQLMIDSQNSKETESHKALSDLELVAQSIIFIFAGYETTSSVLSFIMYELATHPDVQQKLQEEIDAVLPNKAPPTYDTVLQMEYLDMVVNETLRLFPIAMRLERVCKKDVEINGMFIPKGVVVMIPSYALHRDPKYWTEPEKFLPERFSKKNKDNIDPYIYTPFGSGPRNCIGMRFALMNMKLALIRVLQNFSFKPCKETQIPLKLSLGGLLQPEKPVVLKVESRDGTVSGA

Trypanosoma cruzi [6] = assay: (§1) DNDI: Chagas in Vitro; assay type: functional, Tulahuen C4 (LacZ)
[7] = DNDI: Solubility in 0.01M HCl at pH 2 determined by nephelometry
in vitro [8] = settings: human, microsomes; remark: listed apart in the source
[9] = DNDI: Lipophilicity (gLogD) at pH 7.4; settings: buffer
[10] = DNDI: Cytotoxicity against L-6 rat myoblasts from skeletal musclE; settings: L6 rat skeletal muscle myoblasts, IC50
Trypanosoma cruzi [11] = assay: as §1; assay type: functional, organism-based, Tulahuen C4 (LacZ)
[12] = DNDI: Lipophilicity (gLogD) at pH 3; settings: buffer
Cytochrome P450 3A4 [13] = target: T1, Cytochrome P450 3A4
Leishmania donovani = assay: DNDI: Inhibition of formation of Leishmania donovani; assay type: functional, MHOM/ET/67/L82; set-up: concentration or dose not given beside the values
[14] = test system: Trypanosoma brucei rhodesiense; assay: DNDI: HAT in Vitro; assay type: functional, organism-based; settings: ATCC 30027
Cytochrome P450 3A4 [15] = target: T1, Cytochrome P450 3A4; remark: listed apart in the source
[16] = Trypanosoma cruzi, Tulahuen C4 (LacZ)

Row | half-life (in vitro [2]) | solubility kinetic [3] | microsomal CLint (in vitro [4]) | IC90 (Trypanosoma cruzi [6]; [16]) | solubility kinetic [7] | hepatic extraction ratio (in vitro [8]) | chromatographic logD ([9]; pH 7.4) | IC50 (Trypanosoma cruzi [11]; [16]) | chromatographic logD ([12]; pH 3) | IC50 (Cytochrome P450 3A4 [15]) | Structure (SMILES) | IC50 [10] | other results
1 | 12.5 min | 6.3 µg/mL (≈ 16.1 µM) | 139 µL/min/mg | 61.7 nM | > 100 µg/mL | 0.89 | 3.8 | 16 nM | 2.1 | – | O=C(c1ccccc1)N1CCC(N(c2ccc(Cl)cc2)c2cccnc2)CC1 | 52500 nM | half-life [1]: 7.5 min; microsomal CLint [1]: 231 µL/min/mg; hepatic extraction ratio [1]: 0.88; IC50 (Cytochrome P450 3A4 [5]): 1900 nM
2 | 13.8 min | 6.3 µg/mL (≈ 15.5 µM) | 126 µL/min/mg | 7.59 nM | > 100 µg/mL | 0.88 | 4.2 | 2.66 nM | 3.1 | – | CC(C)(C)C(=O)N1CCC(N(c2ccc(C(F)(F)F)cc2)c2cccnc2)CC1 | – | half-life [1]: 13.2 min; microsomal CLint [1]: 131 µL/min/mg; hepatic extraction ratio [1]: 0.81; IC50 (Cytochrome P450 3A4 [13]): 1900 nM
3 | 16.6 min | 12.5 µg/mL (≈ 28 µM) | 105 µL/min/mg | 11 nM | > 100 µg/mL | 0.85 | 3.3 | 6.93 nM | 2.1 | – | Cc1ncsc1C(=O)N1CCC(N(c2ccc(C(F)(F)F)cc2)c2cccnc2)CC1 | 67400 nM | half-life [1]: 28.1 min; microsomal CLint [1]: 61.8 µL/min/mg; hepatic extraction ratio [1]: 0.67; IC50 (Cytochrome P450 3A4 [13]): 2900 nM
4 | 9.9 min | – | 175 µL/min/mg | 1.93 nM | > 100 µg/mL | 0.91 | – | 0.595 nM | 2.4 | – | CC(C)(C)CC(=O)N1CCC(N(c2ccc(Cl)cc2)c2cccnc2)CC1 | – | half-life [1]: 4.9 min; microsomal CLint [1]: 357 µL/min/mg; hepatic extraction ratio [1]: 0.92; IC50 (Cytochrome P450 3A4 [5]): 800 nM; % inhibition (Leishmania donovani): 42.9%
5 | 43.9 min | < 1.6 µg/mL | 39.5 µL/min/mg | 9 nM | – | – | – | 3 nM | 4.6 | – | N#Cc1ccc(N(c2cccnc2)C2CCN(c3ccc(C(F)(F)F)cc3)CC2)cc1 | > 100000 nM | IC90 (Trypanosoma cruzi [6]): 10 nM; % inhibition (Leishmania donovani): 28.1%
6 | – | – | – | – | – | – | – | 10 nM | – | – | FC(F)(F)c1ccc(N(c2cncnc2)C2CCN(c3ccc(C(F)(F)F)nc3)CC2)cc1 | – | IC90 (Trypanosoma cruzi [6]): 21 nM and > 100 nM; IC50 [14]: > 10000 nM; IC50 (Trypanosoma cruzi [11]): 15.9 nM
7 | 14.6 min | < 1.6 µg/mL | 118 µL/min/mg | 13.5 nM | 50 µg/mL (≈ 113 µM) | 0.87 | 4.8 | 7 nM | 4.6 | > 20000 nM | Cn1nc(C2CC2)cc1N1CCC(N(c2ccc(C(F)(F)F)cc2)c2cccnc2)CC1 | 30000 nM | –
8 | 24 min | 12.5 µg/mL (≈ 35.1 µM) | 72.3 µL/min/mg | 13.4 nM | > 100 µg/mL | 0.8 | 3.4 | 5.82 nM | 1.6 | – | O=C(C1CC1)N1CCC(N(c2ccc(Cl)cc2)c2cccnc2)CC1 | 78200 nM | half-life [1]: 10.1 min; microsomal CLint [1]: 171 µL/min/mg; hepatic extraction ratio [1]: 0.85; IC50 (Cytochrome P450 3A4 [5]): 1500 nM
9 | 35.5 min | 12.5 µg/mL (≈ 34.2 µM) | 48.8 µL/min/mg | 280 nM | > 100 µg/mL | 0.73 | 3.1 | 94 nM | 1.6 | – | CS(=O)(=O)N1CCC(N(c2ccc(Cl)cc2)c2cccnc2)CC1 | 62500 nM | half-life [1]: 27.7 min; microsomal CLint [1]: 62.6 µL/min/mg; hepatic extraction ratio [1]: 0.67; IC50 (Cytochrome P450 3A4 [5]): 2600 nM
10 | 12.8 min | < 1.6 µg/mL | 136 µL/min/mg | 8 nM | > 100 µg/mL | 0.88 | – | 3 nM | 4.4 | – | N#Cc1ccccc1N1CCC(N(c2ccc(C(F)(F)F)cc2)c2cccnc2)CC1 | – | % inhibition (Leishmania donovani): 60.9%
11 | 6.7 min | < 1.6 µg/mL | 258 µL/min/mg | 31 nM | 25 µg/mL (≈ 49.5 µM) | 0.94 | 4.7 | 15 nM | 4.4 | 7000 nM | CN(C)S(=O)(=O)c1cccc(N2CCC(N(c3ccc(C(F)(F)F)cc3)c3cccnc3)CC2)c1 | 10400 nM | –
12 | 3.4 min | < 1.6 µg/mL | 504 µL/min/mg | 11 nM | 50 µg/mL (≈ 108 µM) | 0.97 | 3.7 | 6 nM | 3.6 | 6000 nM | CN(C)S(=O)(=O)c1cccc(N2CCC(N(c3ccc(C#N)cc3)c3cccnc3)CC2)c1 | – | –
13 | – | – | – | 38 nM | – | – | – | 15 nM | – | – | FC(F)(F)c1ccc(N2CCC(N(c3ccc(C(F)(F)F)cc3)c3cccnc3)CC2)cc1 | – | IC90 (Trypanosoma cruzi [6]): 28 nM and 41 nM; % inhibition (Leishmania donovani): 38.5%; IC50 (Trypanosoma cruzi [11]): 23 nM and 16.5 nM
14 | 7 min | 1.6 µg/mL (≈ 3.24 µM) | 247 µL/min/mg | 1.47 nM | > 100 µg/mL | 0.93 | 4.4 | 0.618 nM | 3.5 | – | O=C(c1ccccc1C(F)(F)F)N1CCC(N(c2ccc(C(F)(F)F)cc2)c2cccnc2)CC1 | – | half-life [1]: 24 min; microsomal CLint [1]: 72.1 µL/min/mg; hepatic extraction ratio [1]: 0.7; IC50 (Cytochrome P450 3A4 [13]): 1700 nM; % inhibition (Leishmania donovani): 66.3%
15 | 13.1 min | < 1.6 µg/mL | 132 µL/min/mg | 5.7 nM | > 100 µg/mL | 0.88 | 3.9 | 2.18 nM | 2.3 | 2000 nM | CS(=O)(=O)c1ccc(N2CCC(N(c3ccc(Cl)cc3)c3cccnc3)CC2)cc1 | – | –
16 | 15.5 min | < 1.6 µg/mL | 112 µL/min/mg | 13 nM | 50 µg/mL (≈ 118 µM) | – | 4.7 | 7 nM | 4.3 | – | N#Cc1ccc(N2CCC(N(c3ccc(C(F)(F)F)cc3)c3cccnc3)CC2)cc1 | > 100000 nM | % inhibition (Leishmania donovani): 51.5%
17 | 32.8 min | < 1.6 µg/mL | 52.9 µL/min/mg | 11 nM | 12.5 µg/mL (≈ 25.5 µM) | 0.75 | > 5.3 | 7 nM | 5.2 | > 20000 nM | N#Cc1cc(C(F)(F)F)ccc1N1CCC(N(c2ccc(C(F)(F)F)cc2)c2cccnc2)CC1 | 24300 nM | –
18 | 23.5 min | < 1.6 µg/mL | 73.7 µL/min/mg | 3 nM | 6.3 µg/mL (≈ 16.1 µM) | 0.8 | 4.4 | 1.8 nM | 4.2 | 4300 nM | N#Cc1ccc(N(c2cccnc2)C2CCN(c3ccc(F)c(F)c3)CC2)cc1 | > 100000 nM | –
19 | 16.8 min | < 1.6 µg/mL | 103 µL/min/mg | 10.5 nM | 25 µg/mL (≈ 54.7 µM) | 0.85 | > 5.3 | 5 nM | 4.7 | > 20000 nM | N#Cc1cc(C(F)(F)F)ccc1N1CCC(N(c2ccc(Cl)cc2)c2cccnc2)CC1 | 17700 nM | –

Row | Structure (SMILES) | half-life (in vitro [2]) | solubility kinetic [3] | microsomal CLint (in vitro [4]) | IC90 (Trypanosoma cruzi [6]; [16]) | solubility kinetic [7] | hepatic extraction ratio (in vitro [8]) | chromatographic logD ([9]; pH 7.4) | IC50 (Trypanosoma cruzi [11]; [16]) | chromatographic logD ([12]; pH 3) | IC50 (Cytochrome P450 3A4 [15]) | IC50 [10] | other results
20 | CC(=O)C(C)N1CCC(N(c2ccc(C(F)(F)F)cc2)c2cccnc2)CC1 (stereo unspecified) | – | 6.3 µg/mL (≈ 16.1 µM) | – | 31 nM | > 100 µg/mL | – | – | 15 nM | – | 5000 nM | 69000 nM | half-life (in vitro [2]; t (1 / 2)): 21.5 min; microsomal CLint (in vitro [4]; CLint): 80.7 µL/min/mg; hepatic extraction ratio (in vitro [8]; EH): 0.82; chromatographic logD ([9]; pH 7.4, logD): 4.2; chromatographic logD ([12]; pH 3, logD): 1.3
21 | CCC(C(C)O)N1CCC(N(c2ccc(C(F)(F)F)cc2)c2cccnc2)CC1 (stereo unspecified) | – | 25 µg/mL (≈ 61.4 µM) | – | > 100 nM | > 100 µg/mL | – | – | 61 nM | – | 17000 nM | 49600 nM | half-life (in vitro [2]; t (1 / 2)): 35.8 min; microsomal CLint (in vitro [4]; CLint): 48.4 µL/min/mg; hepatic extraction ratio (in vitro [8]; EH): 0.73; chromatographic logD ([9]; pH 7.4, logD): 4.3; chromatographic logD ([12]; pH 3, logD): 1.6
22 | CCC(C(C)=O)N1CCC(N(c2ccc(C(F)(F)F)cc2)c2cccnc2)CC1 (stereo unspecified) | – | 12.5 µg/mL (≈ 30.8 µM) | – | 20 nM | > 100 µg/mL | – | – | 8 nM | – | 10000 nM | 25000 nM | half-life (in vitro [2]; t (1 / 2)): 11.1 min; microsomal CLint (in vitro [4]; CLint): 156 µL/min/mg; hepatic extraction ratio (in vitro [8]; EH): 0.9; chromatographic logD ([9]; pH 7.4, logD): 4.6; chromatographic logD ([12]; pH 3, logD): 1.6
23 | CC(C)(F)CN1CCC(N(c2ccc(C(F)(F)F)cc2)c2cccnc2)CC1 | – | 3.1 µg/mL (≈ 7.84 µM) | – | 25 nM | > 100 µg/mL | – | – | 15 nM | – | – | 64900 nM | half-life (in vitro [2]; t (1 / 2)): 12.6 min; microsomal CLint (in vitro [4]; CLint): 138 µL/min/mg; IC50 [14]: > 10000 nM; chromatographic logD ([9]; pH 7.4, logD): 5.1; chromatographic logD ([12]; pH 3, logD): 1.8
24 | CC(C)C(O)CN1CCC(N(c2ccc(C(F)(F)F)cc2)c2cccnc2)CC1 (stereo unspecified) | – | 25 µg/mL (≈ 61.4 µM) | – | > 10000 nM | > 100 µg/mL | – | – | 36 nM | – | > 20000 nM | 51500 nM | half-life (in vitro [2]; t (1 / 2)): 29.8 min; microsomal CLint (in vitro [4]; CLint): 58.2 µL/min/mg; hepatic extraction ratio (in vitro [8]; EH): 0.76; chromatographic logD ([9]; pH 7.4, logD): 3.9; chromatographic logD ([12]; pH 3, logD): 1.6
